# Where two headings read alike, the source gives them in different places.
# Experiments:
# other PDE isoforms = settings: reported in Brandon et al., Annual Reports in Medicinal Chemistry 42, 2007; cited from earlier work
# [1] = reported in Brandon et al., Annual Reports in Medicinal Chemistry 42, 2007; cited from earlier work
# Rhesus PDE2A3 = biological target: T1, Rhesus PDE2A3 (Macaca mulatta, UniProt B3VTJ2); test: PDE2 fluorescence polarization (IMAP FP) inhibition assay, rhesus PDE2A3; assay type: biochemical, rhesus macaque
# T1 construct: made in house; host or cells: AD293 cells, transient transfection; supernatant of sonicated lysate
# T1 sequence (B3VTJ2 1-941): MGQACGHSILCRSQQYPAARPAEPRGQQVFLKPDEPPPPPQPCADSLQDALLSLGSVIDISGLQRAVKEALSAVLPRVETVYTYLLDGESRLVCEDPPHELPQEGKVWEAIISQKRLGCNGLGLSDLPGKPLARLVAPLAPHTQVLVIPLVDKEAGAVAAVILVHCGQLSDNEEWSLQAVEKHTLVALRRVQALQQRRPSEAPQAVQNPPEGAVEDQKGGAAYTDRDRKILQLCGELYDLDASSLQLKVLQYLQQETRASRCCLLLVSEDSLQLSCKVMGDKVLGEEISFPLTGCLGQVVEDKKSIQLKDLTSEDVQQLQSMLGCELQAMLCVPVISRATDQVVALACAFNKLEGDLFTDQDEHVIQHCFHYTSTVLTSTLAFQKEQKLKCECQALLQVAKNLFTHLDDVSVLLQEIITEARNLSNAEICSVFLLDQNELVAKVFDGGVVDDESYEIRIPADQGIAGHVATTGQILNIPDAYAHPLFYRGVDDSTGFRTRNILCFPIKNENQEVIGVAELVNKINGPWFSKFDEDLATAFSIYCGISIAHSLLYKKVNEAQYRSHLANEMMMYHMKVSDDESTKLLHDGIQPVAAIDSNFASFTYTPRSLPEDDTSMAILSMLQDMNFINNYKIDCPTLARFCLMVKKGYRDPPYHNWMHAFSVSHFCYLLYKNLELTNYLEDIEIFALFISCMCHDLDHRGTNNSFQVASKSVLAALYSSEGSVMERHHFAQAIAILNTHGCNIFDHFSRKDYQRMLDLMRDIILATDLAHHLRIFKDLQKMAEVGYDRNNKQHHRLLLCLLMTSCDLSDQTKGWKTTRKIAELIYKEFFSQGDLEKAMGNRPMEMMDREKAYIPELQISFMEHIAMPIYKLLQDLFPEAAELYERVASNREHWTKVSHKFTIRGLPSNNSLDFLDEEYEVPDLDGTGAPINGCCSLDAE
# Experimental: The activity of the compounds in accordance with the present invention as PDE2 inhibitors may be readily determined using a fluorescence polarization (FP) methodology (Huang, W., et al., J. Biomol Screen, 2002, 7: 215).
# The PDE2 inhibitory activity of the compounds of the present invention was determined in accordance with the following experimental method. Rhesus PDE2A3 was amplified from rhesus macaque brain cDNA (Biochain Institute, Hayward, Calif.) using primers based on human PDE2A sequence (accession NM_002599.3) where the forward primer containing a Kozak consensus was 5′-[…]-3′ and the reverse primer was 5′-[…]-3′. Amplification with Easy-A High-Fidelity PCR cloning enzyme (Stratagene, La Jolla, Calif.) was 95° C. for 2 minutes followed by thirty three cycles of 95° C. for 40 seconds, 52° C. for 30 seconds, and 72° C. for 2 minutes 48 seconds. Final extension was 72° C. for 7 minutes. The PCR product was TA cloned into pcDNA3.3-TOPO (Invitrogen, Carlsbad, Calif.) according to standard protocol. A consensus sequence was developed from multiple clones and then deposited into GenBank (EU812167). AD293 cells (Stratagene, La Jolla, Calif.) with 70-80% confluency were transiently transfected with rhesus PDE2A3/pcDNA3.3-TOPO using Lipofectamine 2000 according to manufacturer specifications (Invitrogen, Carlsbad, Calif.). Cells were harvested 48 hours post-transfection and lysed by sonication (setting 3, 10×5 sec pulses) in a buffer containing 20 mM HEPES pH 7.4, 1 mM EDTA and Complete Protease Inhibitor Cocktail Tablets (Roche, Indianapolis, Ind.). Lysate was collected by centrifugation at 75,000×g for 20 minutes at 4° C. and supernatant utilized for evaluation of PDE2 activity. The fluorescence polarization assay for cyclic nucleotide phosphodiesterases was performed using an IMAP® FP kit supplied by Molecular Devices, Sunnyvale, Calif. (product #R8139). […] Assays were performed at room temperature in 384-well microtiter plates with an incubation volume of 20.2 μL. Solutions of test compounds were prepared in DMSO and serially diluted with DMSO to yield 8 μL of each of 10 solutions differing by 3-fold in concentration, at 32 serial dilutions per plate. […] 0% of inhibition is determined by using DMSO (1% final concentrations).
# A Labcyte Echo 555 (Labcyte, Sunnyvale, Calif.) is used to dispense 200 nL from each well of the titration plate to the 384 well assay plate. Ten microliters of a solution of enzyme (1/2000 final dilution from aliquots; sufficient to produce 20% substrate conversion) was added to the assay plate. Next 10 uL of a separate solution of the substrate FAM-labeled cAMP (50 nM final concentration product # R7506 from Molecular Devices) and the activator cGMP (1 uM final concentration), prepared in the assay buffer (10 mM Tris HCl, pH 7.2, 10 mM MgCl2, 0.05% NaN3 0.01% Tween-20, and 1 mM DTT) was added to the assay plate and shaken to mix. The reaction is allowed to proceed at room temperature for 60 minutes. A binding solution is then made from the kit components, comprised of 80% Solution A, 20% Solution B and binding reagent at a volume of 1/600 the total binding solution. The enzymatic reaction is stopped by addition of 60 μL of the binding solution to each well of the assay plates and the plates are sealed and shaken for 30 seconds. The plate was incubated at room temperature for at least one hour prior to determining the fluorescence polarization (FP). The parallel and perpendicular fluorescence of each well of the plate was measured using a Tecan Genios Pro plate reader (Tecan, Switzerland) or Perkin Elmer EnVision™ plate reader (Waltham, Mass.). Fluorescence polarization (mP) was calculated from the parallel (S) and perpendicular (P) fluorescence of each sample well and the analogous values for the median control well, containing only substrate (So and Po), using the following equation: Polarization(mP)=1000*(S/So−P/Po)/(S/So+P/Po).
# [2] = Lab B, read-out: Rhesus PDE2 Ki (nM) Lab B
# [3] = Lab A, read-out: Rhesus PDE2 Ki (nM) Lab A
SMILES,Ki (Rhesus PDE2A3; [2]),also measured
"COc1ccc(Cc2nn3c([C@@H](CCCc4ccccc4)[C@@H](C)O)nc(C)c3c(=O)[nH]2)cc1OC [BAY 60-7550, Bay 60-7550]",,potency at other PDE isoforms (other PDE isoforms): significant potency; brain penetration [1]: limited
"Cc1nc2c(c(C)nn2C(C)CN(C)c2ccc(C(F)(F)F)cc2)c(=O)[nH]1 (centres unmarked) [Example 331, 3,6-Dimethyl-1-(1-(methyl(4-(trifluoromethyl)phenyl)amino)propan-2-yl)-1H-pyrazolo[3,4-d]pyrimidin-4(5H)-one]",1440 nM,
"Cc1nn(C(C)c2ccc(C(F)(F)F)cc2)c2nc(C3CCOCC3)[nH]c(=O)c12 (centres unmarked) [Example 55, 3-Methyl-6-(tetrahydro-2H-pyran-4-yl)-1-{1-[4-(trifluoromethyl)phenyl]ethyl}-1,5-dihydro-4H-pyrazolo[3,4-d]pyrimidin-4-one]",,Ki (Rhesus PDE2A3; [3]): 421 nM
"Cc1nc2c(c(C)nn2C(C)C(C)(O)c2ccc(C(F)(F)F)cc2)c(=O)[nH]1 (centres unmarked) [Example 333, 1-(3-Hydroxy-3-(4-(trifluoromethyl)phenyl)butan-2-yl)-3,6-dimethyl-1H-pyrazolo[3,4-d]pyrimidin-4(5H)-one]",~29000 nM,
"Cc1nc2c(c(C)nn2CC(=O)Nc2ccc(C(F)(F)F)cc2)c(=O)[nH]1 [Example 337, 2-(3,6-Dimethyl-4-oxo-4,5-dihydro-1H-pyrazolo[3,4-d]pyrimidin-1-yl)-N-(4-(trifluoromethyl)phenyl)acetamide]",,Ki (Rhesus PDE2A3; [3]): > 1000 nM
"Cc1nc2c(c(C)nn2C(C)C(O)c2ccc(C(F)(F)F)cc2)c(=O)[nH]1 (centres unmarked) [Example 332, 1-(1-Hydroxy-1-(4-(trifluoromethyl)phenyl)propan-2-yl)-3,6-dimethyl-1H-pyrazolo[3,4-d]pyrimidin-4(5H)-one]",8880 nM,
"CC(c1ccc(C(F)(F)F)cc1)n1nc(CO)c2c(=O)[nH]c(-c3ccco3)nc21 (racemic) [Example 294, 6-Furan-2-yl-3-(hydroxymethyl)-1-{1-[4-(trifluoromethyl)phenyl]ethyl}-1,5-dihydro-4H-pyrazolo[3,4-d]pyrimidin-4-one]",~2590 nM,
"Cc1nc2c(c(CCN)nn2C(C)c2ccc(C(F)(F)F)cc2)c(=O)[nH]1 (centres unmarked) [Example 282, 3-(2-Aminoethyl)-6-methyl-1-(1-(4-(trifluoromethyl)phenyl)ethyl)-1H-pyrazolo[3,4-d]pyrimidin-4(5H)-one]",> 2970 nM,
"Cc1nc2c(c(C)nn2C(C)CNc2ccc(C(F)(F)F)cc2)c(=O)[nH]1 (centres unmarked) [Example 330, 3,6-Dimethyl-1-(1-(4-(trifluoromethyl)phenylamino)propan-2-yl)-1H-pyrazolo[3,4-d]pyrimidin-4(5H)-one]",2410 nM,
"Cc1nc2c(c(CC(F)(F)F)nn2C(c2ccc(C(F)(F)F)cc2)C(C)(C)C)c(=O)[nH]1 (single isomer, unassigned) [Example 56, (R)- or (S)-1-(2,2-Dimethyl-1-(4-(trifluoromethyl)phenyl)propyl)-6-methyl-3-(2,2,2-trifluoroethyl)-1H-pyrazolo[3,4-d]pyrimidin-4(5H)-one]",6020 nM,

# More lines, main results first:
Ki (Rhesus PDE2A3; [2]),SMILES,also measured
107 nM,"COc1ccc(Cc2nc3c(c(CF)nn3C(C)c3ccc(C(F)(F)F)cc3)c(=O)[nH]2)cc1 (single isomer, unassigned) [Example 218, (R)- or (S)-3-(Fluoromethyl)-6-(4-methoxybenzyl)-1-(1-(4-(trifluoromethyl)phenyl)ethyl)-1H-pyrazolo[3,4-d]pyrimidin-4(5H)-one]",
1080 nM,"Cc1nc2c(c(CC(F)(F)F)nn2C(c2ccc(C(F)(F)F)cc2)C2(C)CC2)c(=O)[nH]1 (single isomer, unassigned) [Example 58, (R)- or (S)-6-Methyl-1-((1-methylcyclopropyl)(4-(trifluoromethyl)phenyl)methyl)-3-(2,2,2-trifluoroethyl)-1H-pyrazolo[3,4-d]pyrimidin-4(5H)-one]",
419 nM,"Cc1nc2c(c(C(F)F)nn2C(C)c2ccc(C(F)(F)F)cc2)c(=O)[nH]1 (single isomer, unassigned) [Example 175]",
703 nM,"Cc1nc2c(c(C#N)nn2C(C)c2ccc(C(F)(F)F)cc2)c(=O)[nH]1 (single isomer, unassigned) [Example 253]",
473 nM,"COCc1nc2c(c(CO)nn2C(C)c2ccc(C(F)(F)F)cc2)c(=O)[nH]1 (single isomer, unassigned) [Example 292]",
387 nM,"CC(c1ccc(C(F)(F)F)cc1)n1nc(COCc2ccccc2)c2c(=O)[nH]c(C(F)F)nc21 (centres unmarked) [Example 283, 3-((Benzyloxy)methyl)-6-(difluoromethyl)-1-(1-(4-(trifluoromethyl)phenyl)ethyl)-1H-pyrazolo[3,4-d]pyrimidin-4(5H)-one]",
416 nM,"Cc1nn(C(C)c2ccc(C(F)(F)F)cc2)c2nc(CCC(=O)N(C)C)[nH]c(=O)c12 (centres unmarked) [Example 32, N,N-Dimethyl-3-(3-methyl-4-oxo-1-(1-(4-(trifluoromethyl)phenyl)ethyl)-4,5-dihydro-1H-pyrazolo[3,4-d]pyrimidin-6-yl)propanamide]",Ki (Rhesus PDE2A3; [3]): 275 nM
987 nM,"Cc1nc2c(c(CN)nn2C(C)c2ccc(C(F)(F)F)cc2)c(=O)[nH]1 (single isomer, unassigned) [Example 275]",
757 nM,"Cc1nc2c(c(CS(C)(=O)=O)nn2C(C)c2ccc(C(F)(F)F)cc2)c(=O)[nH]1 (single isomer, unassigned) [Example 273]",
149 nM,"Cc1nc2c(c(CF)nn2C(c2ccc(C(F)(F)F)cc2)C2(C)CC2)c(=O)[nH]1 (single isomer, unassigned) [Example 208, (R)- or (S)-3-(Fluoromethyl)-6-methyl-1-((1-methylcyclopropyl)(4-(trifluoromethyl)phenyl)methyl)-1H-pyrazolo[3,4-d]pyrimidin-4(5H)-one]",
768 nM,"COCc1nn(C(C)c2ccc(C(F)(F)F)cc2)c2nc(C)[nH]c(=O)c12 (single isomer, unassigned) [Example 278]",

# Reference: patent US10160762B2, “6-alkyl dihydropyrazolopyrimidinone compounds as PDE2 inhibitors” (Merck Sharp & Dohme Corp., priority 2015, dated 2018)
